The results in this text go back to PubChem BioAssay (NCI).

Several values for one entry are separate records, joined by “and”; a condition that tells them apart may be missing. Equal entries are not always repeated.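 Cells were grown in 96-well plates and exposed to each compound for 48 hours at five concentrations; endpoints were interpolated linearly between bracketing concentrations, or set to the highest concentration if not reached. GI50: concentration for 50% inhibition of growth. TGI: concentration producing complete growth inhibition.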 Where only a bound is given, the exact number is not on record here.

What all share (test): DTP human tumour cell line panel, 48 h
Assay [1] has as its system ACHN renal.
Assay [2] concerns HCT-116 colon.
Assay [3] deals with HOP-62 NSCLC.
Assay [4] has as its system LOX IMVI melanoma.
Assay [5] relates to MOLT-4 leukemia.
Assay [6] has as its system NCI-H226 lung.
Assay [7] relates to NCI-H460 lung.
In assay [8] the test system is RXF 393 renal.
Assay [9] deals with SN12C renal.
Assay [10] deals with TK-10 renal.

Take `CN1CCN(CCCNC(=O)c2c3c(n4ccccc24)C(=O)c2ncccc2C3=O)CC1`: the GI50 (commonly the concentration giving 50% growth inhibition) in assay [1] was 0.866 µM; in [2] it was 0.632 µM; in assay [3], 0.966 µM; in [4] it was 0.715 µM; in assay [5], 2.13 µM; in [6], 2.67 µM. Besides, the 50% growth inhibitory concentration (GI50) is 0.316 µM in [7], 1.52 µM in assay [8], 1.42 µM in [9] and 5.13 µM in [10]. For the same compound, the TGI (in general, the concentration giving total growth inhibition) in assay [1] is 5.49 µM; in assay [2] it was 4.93 µM; in assay [3] it was 13.5 µM; in assay [4] it was 3.36 µM; in assay [5], 4.87 µM; in [6] it was 14.1 µM. The TGI was 1.75 µM in assay [7], 10.4 µM in assay [8], 3.61 µM in assay [9] and 40.9 µM in assay [10].

On to `COc1ccc(CN2C(=O)[C@@H]3Cc4c(OC)c(C)c(OC)c(OC)c4[C@H](/C2=C\c2cc(OC)c(OC)c(C)c2OC)N3C(=O)OC(C)C)cc1`, for which the TGI was above 100 µM in assay [1]; above 100 µM in [2]; above 100 µM in assay [3]; above 100 µM in assay [4]; above 100 µM in assay [5]; 34.1 µM in [6]. Besides, the TGI in assay [7], in assay [8], in assay [9] and in [10] was above 100 µM throughout.

Regarding `Cc1ccc(/C=N/NC(=O)c2ccccc2Oc2ccccc2)o1`, the GI50 in assay [1] was 28.5 µM; in [2] it was 48.8 µM; in [3], 70.9 µM; in assay [4], above 67.4 µM; in assay [5], 22.8 µM; in [6] it was 39.1 µM. In addition, the GI50 was 44.4 µM in [7], 35.6 µM in [8], 32.9 µM in [9] and 71.6 µM in [10]. Moreover, the TGI in assay [1] is above 100 µM; in assay [2], above 100 µM; in [3], above 100 µM; in assay [4], above 100 µM; in assay [5] it was 66.5 µM; in assay [6], above 100 µM. The TGI in assay [7], in assay [8], in [9] and in [10] was above 100 µM each time.

For the compound `O=C(O)CCC(c1ccccc1)(c1ccccc1)c1ccccc1`, the concentration for total growth inhibition (TGI) was above 100 µM in assay [1]; above 100 µM in assay [2]; above 100 µM in assay [3]; above 100 µM in [4]; above 92.2 µM in assay [5]; above 100 µM in [6]. Besides, the TGI is above 91.2 µM in assay [7], above 100 µM in [8], above 100 µM in [9] and above 100 µM in assay [10]. The GI50 in assay [2] was 43.6 µM; in [8], 49.5 µM.

`N#C/C(=C\c1c(O)cc(O)cc1O)C(N)=O`: the TGI in [1], in assay [2], in [3], in assay [4], in assay [5] and in assay [6] was above 100 µM in each case. The total growth inhibition concentration (TGI) in [7], in assay [8], in [9] and in assay [10] was above 100 µM each time.

Consider `N#C/C(=C\c1cc(O)c(O)c(O)c1)C(N)=O`, for which the concentration for total growth inhibition (TGI) in assay [1] was above 100 µM; in assay [2], above 100 µM; in assay [3], above 100 µM; in assay [4], above 65.6 µM; in [5], above 100 µM; in assay [6], above 100 µM. The TGI in assay [7], in assay [8], in assay [9] and in [10] was above 100 µM each time.

With `CNC(=O)ON(C(C)=O)C(=O)NC`, the GI50 in [1] is above 60.8 µM; in assay [4], 65.2 µM; in assay [5], 35.7 µM and 19.1 µM. Moreover, the concentration for total growth inhibition (TGI) in [1] was 47.7 µM; in assay [2], 136 µM; in assay [3] it was 309 µM; in assay [4] it was 119 µM; in assay [5], > 91.5 µM and 92 µM; in [6], 230 µM. For the same compound, the TGI in [7] came out at 220 µM; in [8] it was 107 µM; in assay [9], 166 µM; in assay [10], 70.6 µM.

In the case of `CC(C)(C)[Si](C)(C)OCC1OC(n2cnc3c(=O)[nH]cnc32)CC1O` (stereo not given), the total growth inhibition concentration (TGI) in assay [1], in assay [2], in assay [3], in assay [4], in assay [5] and in [6] was above 100 µM in each case. In addition, the TGI in assay [7], in assay [8], in assay [9] and in assay [10] was above 100 µM throughout.

Consider `Cc1ccc(C[As+](c2ccccc2)(c2ccccc2)c2ccccc2)cc1`, for which the GI50 is 3.66 µM in assay [1]; 0.645 µM in [2]; 1.5 µM in assay [3]; 1.41 µM in assay [4]; 2.41 µM in assay [5]; 1.64 µM in assay [6]. In addition, the GI50 in assay [7] was 0.674 µM; in assay [8] it was 1.62 µM; in [9], 1.25 µM; in assay [10] it was 2.01 µM. Moreover, the TGI in assay [1] was above 100 µM; in assay [2] it was above 36.2 µM; in [3], 32.9 µM; in assay [4], 6.85 µM; in assay [5] it was 13.6 µM; in assay [6] it was above 100 µM. Further, the TGI in [7] turned out to be 8.36 µM; in assay [8], 11.4 µM; in assay [9] it was 12.1 µM; in [10], 20.5 µM.

Turning to `Cc1ccccc1NC(=O)/C(=N\NC(N)=S)C(C#N)c1ccccc1` (stereo not given), the TGI in assay [1], in [2], in [3], in assay [4], in [5] and in assay [6] was above 100 µM throughout. Further, the concentration for total growth inhibition (TGI) in assay [7], in [8], in assay [9] and in assay [10] was above 100 µM each time.
